ChEMBL document CHEMBL3885881, “DrugMatrix”

Species on record: Rattus norvegicus
Assay: DrugMatrix - Regimen: Daily Repeat
Format: toxicity, organism-based, Sprague-Dawley
Design: regimen Daily Repeat, gender Male, age 6-8 weeks
Details: in vivo, po, route oral GAVAGE, […]; for ABSOLUTE BASOPHIL / ABSOLUTE EOSINOPHIL / ABSOLUTE LYMPHOCYTE / ABSOLUTE MONOCYTE / ABSOLUTE SEGMENTED NEUTROPHIL / BASOPHIL / EOSINOPHIL / ERYTHROCYTE COUNT / HEMATOCRIT / HEMOGLOBIN / LEUKOCYTE COUNT / LYMPHOCYTE / MEAN CORPUSCULAR HEMOGLOBIN / MEAN CORPUSCULAR HEMOGLOBIN CONCENTRATION / MONOCYTE / NEUTROPHIL / NUCLEATED RED BLOOD CELLS / PLATELET COUNT: tissue Blood; for ALANINE AMINOTRANSFERASE / ALBUMIN / ALKALINE PHOSPHATASE / ASPARTATE AMINOTRANSFERASE / BLOOD UREA NITROGEN / CARBON DIOXIDE / CHLORIDE / CHOLESTEROL / CREATINE PHOSPHOKINASE / CREATININE / LACTATE DEHYDROGENASE / LIPASE / PHOSPHORUS / POTASSIUM / SODIUM / TOTAL BILIRUBIN / TOTAL PROTEIN / URIC ACID: tissue Plasma
[1] = 10 mg/kg, 120 h, dose level Low, time 5 day
[2] = 1800 mg/kg, 72 h, dose level High, time 3 day
[3] = 1800 mg/kg, 120 h, dose level High, time 5 day

CN(CCOc1ccc(CC2SC(=O)NC2=O)cc1)c1ccccn1 (stereo not drawn) [ROSIGLITAZONE]
ABSOLUTE BASOPHIL [1]: 0 CELLS/uL | ABSOLUTE EOSINOPHIL [1]: 76.67 CELLS/uL | ABSOLUTE LYMPHOCYTE [1]: 6940.67 CELLS/uL | ABSOLUTE MONOCYTE [1]: 0 CELLS/uL | ABSOLUTE SEGMENTED NEUTROPHIL [1]: 749.33 CELLS/uL | BASOPHIL [1]: 0% | EOSINOPHIL [1]: 1% | ERYTHROCYTE COUNT [1]: 4.86 x10E6/uL | HEMATOCRIT [1]: 32.47% | HEMOGLOBIN [1]: 12.6 G/DL | LEUKOCYTE COUNT [1]: 7.77 x10E3/uL | LYMPHOCYTE [1]: 89.33% | MEAN CORPUSCULAR HEMOGLOBIN [1]: 25.9 pg | MEAN CORPUSCULAR HEMOGLOBIN CONCENTRATION [1]: 38.83 G/DL | MONOCYTE [1]: 0% | NEUTROPHIL [1]: 9.67% | NUCLEATED RED BLOOD CELLS [1]: 0 /100WBC | PLATELET COUNT [1]: 1021.33 x10E3/uL | ALANINE AMINOTRANSFERASE [1]: 62 u/L | ALBUMIN [1]: 3.97 G/DL | ALKALINE PHOSPHATASE [1]: 357.67 u/L | ASPARTATE AMINOTRANSFERASE [1]: 91 u/L | BLOOD UREA NITROGEN [1]: 16.67 mg/dL | CARBON DIOXIDE [1]: 33.33 mmol/L | CHLORIDE [1]: 101 MEQ/L | CHOLESTEROL [1]: 67.67 mg/dL | CREATINE PHOSPHOKINASE [1]: 238 u/L | CREATININE [1]: 0.13 mg/dL | LACTATE DEHYDROGENASE [1]: 63.33 u/L | LIPASE [1]: 13.67 u/L | PHOSPHORUS [1]: 10.13 mg/dL | POTASSIUM [1]: 4.62 MEQ/L | SODIUM [1]: 146.1 MEQ/L | TOTAL BILIRUBIN [1]: 0.0333 mg/dL | TOTAL PROTEIN [1]: 5.5 G/DL | URIC ACID [1]: 0.27 mg/dL | ABSOLUTE BASOPHIL [2]: 0 CELLS/uL | ABSOLUTE EOSINOPHIL [2]: 26 CELLS/uL | ABSOLUTE LYMPHOCYTE [2]: 10365.67 CELLS/uL | ABSOLUTE MONOCYTE [2]: 125.33 CELLS/uL | ABSOLUTE SEGMENTED NEUTROPHIL [2]: 983 CELLS/uL | BASOPHIL [2]: 0% | EOSINOPHIL [2]: 0.33% | ERYTHROCYTE COUNT [2]: 5.03 x10E6/uL | HEMATOCRIT [2]: 31.87% | HEMOGLOBIN [2]: 12.43 G/DL | LEUKOCYTE COUNT [2]: 11.5 x10E3/uL | LYMPHOCYTE [2]: 90.67% | MEAN CORPUSCULAR HEMOGLOBIN [2]: 24.77 pg | MEAN CORPUSCULAR HEMOGLOBIN CONCENTRATION [2]: 39.03 G/DL | MONOCYTE [2]: 0.67% | NEUTROPHIL [2]: 8.33% | NUCLEATED RED BLOOD CELLS [2]: 0 /100WBC | PLATELET COUNT [2]: 1207.33 x10E3/uL | ALANINE AMINOTRANSFERASE [2]: 77.67 u/L | ALBUMIN [2]: 3.97 G/DL | ALKALINE PHOSPHATASE [2]: 304.33 u/L | ASPARTATE AMINOTRANSFERASE [2]: 99.67 u/L | BLOOD UREA NITROGEN [2]: 14.67 mg/dL | CARBON DIOXIDE [2]: 29.33 mmol/L | CHLORIDE [2]: 103 MEQ/L | CHOLESTEROL [2]: 44.67 mg/dL | CREATINE PHOSPHOKINASE [2]: 406.67 u/L | CREATININE [2]: 0.29 mg/dL | LACTATE DEHYDROGENASE [2]: 107.33 u/L | LIPASE [2]: 23.33 u/L | PHOSPHORUS [2]: 8.37 mg/dL | POTASSIUM [2]: 4.78 MEQ/L | SODIUM [2]: 144.7 MEQ/L | TOTAL BILIRUBIN [2]: 0.17 mg/dL | TOTAL PROTEIN [2]: 5.07 G/DL | URIC ACID [2]: 0.43 mg/dL | ABSOLUTE BASOPHIL [3]: 0 CELLS/uL | ABSOLUTE EOSINOPHIL [3]: 16.67 CELLS/uL | ABSOLUTE LYMPHOCYTE [3]: 4629 CELLS/uL | ABSOLUTE MONOCYTE [3]: 80.67 CELLS/uL | ABSOLUTE SEGMENTED NEUTROPHIL [3]: 707 CELLS/uL | BASOPHIL [3]: 0% | EOSINOPHIL [3]: 0.33% | ERYTHROCYTE COUNT [3]: 5.6 x10E6/uL | HEMATOCRIT [3]: 34.33% | HEMOGLOBIN [3]: 13.27 G/DL | LEUKOCYTE COUNT [3]: 5.43 x10E3/uL | LYMPHOCYTE [3]: 85.33% | MEAN CORPUSCULAR HEMOGLOBIN [3]: 23.8 pg | MEAN CORPUSCULAR HEMOGLOBIN CONCENTRATION [3]: 38.7 G/DL | MONOCYTE [3]: 1.33% | NEUTROPHIL [3]: 13% | NUCLEATED RED BLOOD CELLS [3]: 0 /100WBC | PLATELET COUNT [3]: 1134.33 x10E3/uL | ALANINE AMINOTRANSFERASE [3]: 160.33 u/L | ALBUMIN [3]: 3.97 G/DL | ALKALINE PHOSPHATASE [3]: 307 u/L | ASPARTATE AMINOTRANSFERASE [3]: 119 u/L | BLOOD UREA NITROGEN [3]: 16 mg/dL | CARBON DIOXIDE [3]: 26.67 mmol/L | CHLORIDE [3]: 98.67 MEQ/L | CHOLESTEROL [3]: 66.33 mg/dL | CREATINE PHOSPHOKINASE [3]: 501.67 u/L | CREATININE [3]: 0.25 mg/dL | LACTATE DEHYDROGENASE [3]: 115 u/L | LIPASE [3]: 9.67 u/L | PHOSPHORUS [3]: 7.87 mg/dL | POTASSIUM [3]: 4.33 MEQ/L | SODIUM [3]: 141.6 MEQ/L | TOTAL BILIRUBIN [3]: 0.2 mg/dL | TOTAL PROTEIN [3]: 5.1 G/DL | URIC ACID [3]: 0.3 mg/dL
